# Test system: SRB-2 (RNA, aptamer) GGAACCUCGCUUCGGCGAUGAUGGAGAGGCGCAAGGUUAACCGCCUCAGGUUCC
# Assay: fluorescence titration
# Details: 125 mM KCl, 5 mM MgCl2, 20 mM Hepes pH 7.4, 25 °C, RNA titrated
Structure (SMILES),Kd (50 nM probe),Kd (10 nM probe)
Nc1c2ccccc2nc2ccccc12,2960 ± 240 nM,–
CN(C)c1ccc2cc3ccc(N(C)C)cc3[o+]c2c1,–,59 ± 9 nM
CN(C)c1ccc2cc3ccc(N(C)C)cc3nc2c1,–,88 ± 8 nM

# Next, values leading:
Kd (50 nM probe),Kd (10 nM probe),Structure (SMILES)
260 ± 21 nM,–,CCN(CC)c1ccc2nc3ccc(N(CC)CC)cc3[o+]c2c1
–,251 ± 50 nM,CCN(CC)c1ccc2cc3ccc(=[N+](CC)CC)cc-3oc2c1

# — PMC6182184 (2018)
